Measured values as given in US11541045B2, “Methods of treating cancer with farnesyltransferase inhibitors” (Kura Oncology, Inc., priority 2017, dated 2023).
Where “and” joins values, the source holds several entries; their conditions need not be identical. Identical values can stand only once. Entries after “also recorded” stand apart in the source; their conditions may differ.

Assays:
Type in all cases: in vivo, human
[1] = test system: newly diagnosed AML in elderly patients with poor risk AML; assay: CTEP-20 trial, Phase 2, tipifarnib, analysed by CXCL12 expression
Experimental: (§1) Previous clinical studies with tipifarnib were performed in newly diagnosed AML in elderly patients with poor risk AML (CTEP-20, Phase 2) or relapsed and refractory AML (INT-17, Phase 2). In these studies, patient selection was not based on genetic markers. Anecdotal evidence of tipifarnib single agent activity was reported.

[2] = test system: relapsed and refractory AML; assay: INT-17 trial, Phase 2, tipifarnib, analysed by CXCR4 expression; conditions: relapsed or refractory AML patients, highest quintile of CXCR4 expression
Experimental: as §1

[3] = test system: peripheral T-cell lymphoma (PTCL); assay: Phase II clinical study of tipifarnib in relapsed or refractory PTCL patients; design: key to Response: PR: partial response; SD: stable disease; PD: progressive disease
Excerpt: A Phase II clinical study of tipifarnib can be conducted with the primary objective being to assess the antitumor activity of tipifarnib, in terms of Objective Response Rate (ORR) in subjects with relapsed or refractory advanced peripheral T-cell lymphoma (PTCL). Determination of objective tumor response can be performed by the International Workshop Criteria (IWC) and/or measurable cutaneous disease according to the modified Severity Weighted Assessment Tool (mSWAT). Secondary objectives can include accessing the effect of tipifarnib on rate of progression-free survival (PFS) at 1 year, duration of response (DOR), overall survival (OS); and safety and tolerability of tipifarnib.
This Phase II study investigates the antitumor activity in terms of ORR of tipifarnib in subjects with PTCL. Up to 18 eligible subjects with advanced PTCL are enrolled. The total number of patients can be extended to 30.
Subjects receive tipifarnib administered at a starting dose of 900 mg, orally with food, twice a day (bid) for 7 days in alternating weeks (Days 1-7 and 15-21) in 28 day cycles. At the discretion of the investigator, the dose of tipifarnib can be increased to 1200 mg bid if the subject has not experienced dose limiting toxicities at the 900 mg dose level. Subjects who develop serious adverse events (SAE) or ≥grade 2 treatment-emergent adverse events (TEAE) that are deemed related to tipifarnib and lasting ≥14 days will not undergo dose escalation. Stepwise 300 mg dose reductions to control treatment-related, treatment-emergent toxicities are also allowed.
In the absence of unmanageable toxicities, subjects can continue to receive tipifarnib treatment until disease progression. If a complete response is observed, therapy with tipifarnib can be maintained for at least 6 months beyond the start of response.
Tumor assessments are performed at screening and at least once every approximately 8 weeks for 6 months (cycles 2, 4, 6) and once every approximately 12 weeks (cycles 9, 12, 15, etc.) thereafter, until disease progression, starting at the end of Cycle 2. Additional tumor assessments can be conducted if deemed necessary by the Investigator. Subjects who discontinue tipifarnib treatment for reasons other than disease progression must continue tumor assessments until disease progression, withdrawal of subject's consent to study
The study was an eighteen patient Phase II study with a Simon two-stage design (11+7). Two responses were required after the first eleven evaluable patients in order to proceed to second stage. Enrollment is to be extended to thirty patients if five responses are seen in the first stage.
The dose of 900 mg b.i.d. for seven days in alternate week dosing was amended during the first stage to 600 mg b.i.d. for seven days in alternate week dosing.
Formalin-fixed, paraffin-embedded (FFPE) samples were obtained from all subjects for the analysis of gene expression using RNA Seq and of single nucleotide variation (SNV, including SNPs and mutations) using next generation sequencing (NGS). Thirteen samples passed quality control (QC) for expression analysis. Sixteen samples passed quality control for SNV analysis.
This example describes a Phase 2 study (ClinicalTrials.gov Identifier: NCT02464228) designed to investigate the antitumor activity of tipifarnib in 18 patients with relapsed or refractory PTCL, and certain results of the study.
Primary outcome measures: Objective Response Rate (ORR) by the International Workshop Criteria (IWC) and/or measurable cutaneous disease according to the modified Severity Weighted Assessment Tool (mSWAT). Secondary outcome measures include the effect of tipifarnib on rate of progression-free survival (PFS) at 1 year, duration of response (DOR); and safety and tolerability of tipifarnib.
Study Design: oral tipifarnib 300 mg twice daily (bid) on days 1-21 of 28-day treatment cycles. A Simon two-stage design for ORR. […]

[4] = Grade ≥3 drug-related TEAEs, % of pts

Cn1cncc1[C@@](N)(c1ccc(Cl)cc1)c1ccc2c(c1)c(-c1cccc(Cl)c1)cc(=O)n2C [tipifarnib]
mPFS ([1]; second CXCL12 expression tertile): 89 days
mPFS ([1]; third tertile (lowest level of CXCL12 expression)): 33 days
median progression free survival (mPFS) ([1]; treatment naïve elderly, frail AML patients, highest CXCL12 expression tertile): 431 days
median survival [2]: 182 days
Median overall PFS ([3]; 5th line, all subjects with NGS data, reference and variant CXCL12 3′ UTR): 53 days
HR (PFS) ([3]; CXCL12/CXCR4 ratio >0.200 versus ≤0.200, P=0.004): 0.22
anemia [3, 4]: 32%
febrile neutropenia [3, 4]: 32%
leukopenia [3, 4]: 47%
lymphopenia [3, 4]: 16%
neutropenia [3, 4]: 74%
thrombocytopenia [3, 4]: 58%
Safety and Tolerability ([3]; PTCL patients, overall statement): consistent with known safety profile; also recorded: generally well-tolerated
Response ([3]; Table 1, one line per subject 1-18, PTCL patients, 900 mg b.i.d. amended to 600 mg b.i.d., seven days in alternate weeks): PR (3×) and PD (11×) and SD (4×)
Response ([3]; Table 2, RNA Seq Experiment#1, one cell per patient (2002, 2004, 3002, 4001, 2001, 4004)): PD (3×) and SD (2×) and PR
Response ([3]; Table 3, RNA Seq Experiment#2, one cell per patient (2005, 2006, 4005, 4006, 4007, 6003, 2007)): PD (5×) and SD and PR
median duration of durable responses ([3]; cohort of PTCL patients of Example II): 11 months
median time to progression ([3]; five patients with tumor size reductions, associated with elevated CXCL12 expression (p<0.001)): > 6 mo
HR (PFS) ([3]; high versus low CXCL12 expression, FIG. 13A, p=0.0015): 0.22
Discontinuation for Progressive Disease ([3]; of 17 discontinuations): 16 n
mPFS ([3]; patients with CXCL12 3′ UTR SNV rs2839695, N=7, first time point (FIG. 4)): 48 days
median progression free survival (mPFS) ([3]; patients with CXCL12/CXCR4 ratio >0.200 (N=5)): 189 days
median progression free survival (mPFS) ([3]; patients with CXCL12/CXCR4 ratio ≤0.200 (N=7)): 51 days
mPFS ([3]; patients with CXCL12 reference 3′ UTR (8 patients), FIG. 12A): 133 days
mPFS ([3]; patients with CXCL12 rs2839695, N=7, later timepoint (FIG. 6)): 50 days
mPFS ([3]; patients with CXCL12 variant 3′ UTR (8 with rs2839695 and 1 novel variant), FIG. 12B): 34 days
mPFS ([3]; patients with no SNV in the 3′ UTR of CXCL12 (reference 3′ UTR), N=8, first time point (FIG. 4)): 189 days
mPFS ([3]; patients with no SNV in the 3′ UTR of CXCL12, N=8, later timepoint (FIG. 6)): 134 days
mPFS ([3]; subjects with high CXCL12 expression, FIG. 13A): 190 days
activity in KIR3DL2-expressing PTCL ([3]; subjects with high KIR3DL2 expression (e.g., over 1000)): no activity
mPFS ([3]; subjects with low CXCL12 expression, FIG. 13A): 49 days
